Source: publication PMC11494293, “Biochemical and structural insights into a 5’ to 3’ RNA ligase reveal a potential role in tRNA ligation” (Proceedings of the National Academy of Sciences of the …, 2024)

Biological target: T1, YspRLIG1 (Yasminevirus RLIG1) (Yasminevirus sp. GU-2018, UniProt A0A5K0UB63)
T1 construct: gene YASMINEVIRUS_1364; minimal RNA ligase (NTase) fold; active-site Lys73
T1 sequence (A0A5K0UB63 1-276): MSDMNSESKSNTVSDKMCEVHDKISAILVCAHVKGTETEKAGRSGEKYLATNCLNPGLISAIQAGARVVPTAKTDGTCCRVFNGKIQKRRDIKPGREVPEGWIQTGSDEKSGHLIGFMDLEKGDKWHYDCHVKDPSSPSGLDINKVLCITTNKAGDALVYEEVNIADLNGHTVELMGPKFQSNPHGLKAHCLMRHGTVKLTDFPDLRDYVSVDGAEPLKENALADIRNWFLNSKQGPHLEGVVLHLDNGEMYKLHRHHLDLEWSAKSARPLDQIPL
Assay: X-ray crystal structure
Format: binding
Settings: crystallised in the presence of ATP, active site, either AMP or ADP modelled

Row | Structure (SMILES) | X-ray crystal structure | X-ray crystal structure (WT protein adenylated)
1 | Nc1ncnc2c1ncn2[C@@H]1O[C@H](COP(=O)(O)OP(=O)(O)O)[C@@H](O)[C@H]1O [ADP] | In the ADP-bound YspRLIG1^WT structure, the O5-Pα bond is rotated | –
2 | Nc1ncnc2c1ncn2[C@@H]1O[C@H](COP(=O)(O)O)[C@@H](O)[C@H]1O [AMP] | – | In the WT structure, either AMP or ADP was modeled in the active site
